Drawing on patent publication US8058285B2, “Substituted pyrido [3′, 2′: 4, 5] thieno [3, 2-D] pyrimidines and pyrido [3′, 2′: 4, 5] furo [3, 2-D] pyrimidines used as inhibitors of the PDE-4 and/or the release of TNF-ALPHA” (The Medicines Company (Leipzig) GmbH, priority 2004, dated 2011), this text covers IC50 for 30 compounds.

This assay deals with T1, PDE-4A (Homo sapiens, UniProt P27815).
T1 construct: PDE-4A catalytic domain comprising amino acids 342-704; made in house; host or cells: Escherichia coli
T1 sequence (P27815 342-704): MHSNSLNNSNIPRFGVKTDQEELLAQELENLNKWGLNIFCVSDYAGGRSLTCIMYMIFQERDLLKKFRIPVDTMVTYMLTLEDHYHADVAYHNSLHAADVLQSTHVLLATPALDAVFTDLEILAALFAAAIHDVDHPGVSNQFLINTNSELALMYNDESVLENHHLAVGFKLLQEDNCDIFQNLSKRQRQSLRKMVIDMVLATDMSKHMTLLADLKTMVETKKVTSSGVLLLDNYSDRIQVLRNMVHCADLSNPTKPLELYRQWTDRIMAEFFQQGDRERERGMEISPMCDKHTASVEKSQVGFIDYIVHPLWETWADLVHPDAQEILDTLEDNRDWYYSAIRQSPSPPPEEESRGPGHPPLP
Description: PDE-4A inhibitory assay (SPA). The format is biochemical. The text has this:
Human recombinant PDE-4A catalytic domain comprising amino acids 342-704 was cloned into Escherichia coli and expressed, as described by W. Richter et al., Protein Expression and Purification (2000) 19: 375-383. The other posphodiesterases were either obtained from cell lines of human origin (TPH1 monocytes line for PDE-1, MCF7 for PDE-5) or expressed recombinantly in sf9 insect cells (for PDE-3A, PDE-3B, PDE-7A and PDE-4D) in accordance with an adapted method by Luckow, V. A. et al., in: Recombinant DNA Technology & Applications., (1991) eds. Prokop, Bajpai, R. K. & Ho, C. S., pp 97-152.
The phosphodiesterase activity was determined by the SPA assay as described by the manufacturer Amersham Biosciences and by Horton J. K and Baxendale P. M., Methods Mol. Biol. (1995) 41: 91-105.
The reaction mixtures contained 100 mM Tris-HCl (pH 7.5), 5 mM MgCl2, 3.8 mM 2-mercaptoethanol, and 1 μM cAMP or cGMP as a substrate, the inhibitors at different concentrations and also further components required for the detection of the individual isoenzymes (see below). The reaction was started by adding the enzyme. The operating volume is 100 μl in the wells of a white 96-Well microtiter plate. The test substances were produced as stock solutions in DMSO. The DMSO concentration in the reaction batch was 1% v/v. The PDE activity is not impaired with this DMSO concentration. Having started the reaction by the addition of enzyme, the samples were incubated at 22° C. for 20 min. The reaction was stopped by the addition of SPA bead suspension which contains the zinc sulfate concentration provided according to the manufacturer. Then, the beads are allowed to sediment for 30 min and the plates are analyzed on the luminescence microtiter plate reader Fluostar Optima (BMG Labtechologies).
[^3H]-cAMP was used as a substrate for determining the activity of PDE-2, -3, -4 and -7 and [^3H]-cGMP for determining the activity of PDE-5. The non-specific enzyme activities were determined in the presence of 100 μM rolipram (for PDE-4) and in the presence of 100 μM IBMX (for PDE-3 and -5) and subtracted from the test values. The incubation samples of the PDE-3 assay contain 10 μM rolipram to inhibit possible contaminations by PDE-4. The PDE-2 activity is tested using a SPA assay by Amersham Biosciences in the presence of the PDE-2 activator 5 μM cGMP. […] The selectivity as to PDEs 2, 3 and 5 has a factor of 100 to 10 000.
As to `CCOc1nc(N2CCNCC2)nc2c1sc1nc(-c3ccc(-c4ccco4)cc3)nc(C)c12` [4-Ethoxy-7-(4-[2-furyl]-phenyl)-9-methyl-2-piperazin-1-yl-thieno[2,3-d:4,5-d′]dipyrimidine], the IC50 was less than 2 nM. `CCOc1nc(N2CCNCC2)nc2c1sc1nc(-c3ccc(C(O)c4cccnc4)cc3)nc(C)c12` (stereo not drawn) [4-Ethoxy-7-(4-[hydroxy{3-pyridyl}methyl]-phenyl)-9-methyl-2-piperazin-1-yl-thieno[2,3-d:4,5-d′]dipyrimidine] had a half-maximal inhibitory concentration (IC50) of 2 to 50 nM. Compound `CCOc1ccc(-c2cc(CC)c3c(n2)sc2c(OCC)nc(N4CCNCC4)nc23)cc1` [4-Ethoxy-7-(4-ethoxy-phenyl)-9-ethyl-2-(piperazin-1-yl)-pyrido[3′,2′:4,5]thieno[3,2-d]pyrimidine] registered an IC50 of less than 2 nM. Regarding `CCOc1nc(N2CCNCC2)nc2c1sc1nc(-c3ccc(F)cc3)cc(C(F)(F)F)c12` [4-Ethoxy-7-(4-fluoro-phenyl)-2-piperazin-1-yl-9-trifluoromethyl-pyrido[3′,2′:4,5]thieno[3,2-d]pyrimidine], the IC50 fell in the range of 2 to 50 nM. `CCOc1nc(N2CCNCC2)nc2c1sc1nc(-c3ccc(I)cc3)cc(C(F)(F)F)c12` [4-Ethoxy-7-(4-iodo-phenyl)-2-(piperazin-1-yl)-9-trifluoromethyl-pyrido[3′,2′:4,5]thieno[3,2-d]pyrimidine]: the IC50 was less than 2 nM. Compound `CCOc1nc(N2CCNCC2)nc2c1sc1nc(-c3ccc(OC)cc3)cc(C(F)(F)F)c12` [4-Ethoxy-7-(4-methoxy-phenyl)-2-(piperazin-1-yl)-9-trifluoromethyl-pyrido[3′,2′:4,5]thieno[3,2-d]pyrimidine] gave a half-inhibitory concentration (IC50) of less than 2 nM. Then `CCOc1nc(N2CCNCC2)nc2c1sc1nc(-c3ccc(OC)cc3)nc(C)c12` [4-Ethoxy-7-(4-methoxy-phenyl)-9-methyl-2-piperazin-1-yl-thieno[2,3-d:4,5-d′]dipyrimidine], with 2 to 50 nM; and `CCOc1nc(N2CCNCC2)nc2c1sc1nc(-c3ccc(OC)cc3)c(Cc3ccc([N+](=O)[O-])cc3)c(C)c12` [4-Ethoxy-7-(4-methoxy-phenyl)-9-methyl-8-(4-nitro-benzyl)-2-(piperazin-1-yl)-pyrido[3′,2′:4,5]thieno[3,2-d]pyrimidine], with 2 to 50 nM; and `CCOc1nc(N2CCNCC2)nc2c1sc1nc(-c3ccc(C)cc3)cc(C(F)(F)F)c12` [4-Ethoxy-7-(4-methyl-phenyl)-2-(piperazin-1-yl)-9-trifluoromethyl-pyrido[3′,2′:4,5]thieno[3,2-d]pyrimidine], with less than 2 nM. The result for `CCOc1nc(N2CCNCC2)nc2c1sc1nc(-c3ccc(C)cc3)cc(C(C)C)c12` [4-Ethoxy-7-(4-methyl-phenyl)-9-iso-propyl-2-(piperazin-1-yl)-pyrido[3′,2′:4,5]thieno-[3,2-d]pyrimidine] reads less than 2 nM; that for `CCOc1nc(N2CCNCC2)nc2c1sc1nc(-c3ccc(SC)cc3)cc(C(F)(F)F)c12` [4-Ethoxy-7-(4-methylthiophenyl)-2-(piperazin-1-yl)-9-trifluoromethyl-pyrido[3′,2′:4,5]thieno[3,2-d]pyrimidine], less than 2 nM; that for `CCOc1nc(N2CCNCC2)nc2c1sc1nc(-c3ccc(N4CCOCC4)cc3)cc(C(F)(F)F)c12` [4-Ethoxy-7-(4-morpholinophenyl)-2-(piperazin-1-yl)-9-trifluoromethyl-pyrido[3′,2′:4,5]thieno[3,2-d]pyrimidine], 2 to 50 nM. Take `CCOc1nc(N2CCNCC2)nc2c1sc1nc(-c3ccc([N+](=O)[O-])cc3)cc(C(F)(F)F)c12` [4-Ethoxy-7-(4-nitro-phenyl)-2-piperazin-1-yl-9-trifluoromethyl-pyrido[3′,2′:4,5]thieno[3,2-d]pyrimidine]: the IC50 was in the range of 2 to 50 nM. The result for `CCOc1nc(N2CCNCC2)nc2c1sc1nc(-c3ccc(C(F)(F)F)cc3)cc(C)c12` [4-Ethoxy-7-(4-trifluoro-methyl-phenyl)-9-methyl-2-(piperazin-1-yl)-pyrido[3′,2′:4,5]thieno[3,2-d]pyrimidine] reads 2 to 50 nM. Take `CCOc1nc(N2CCNCC2)nc2c1sc1nc(-c3ccc(OCc4ccc([N+](=O)[O-])cc4)cc3)cc(C(F)(F)F)c12` [4-Ethoxy-7-[4-(4-nitrobenzyloxy)-phenyl]-2-piperazin-1-yl-9-trifluoromethyl-pyrido[3′,2′:4,5]thieno[3,2-d]pyrimidine]: the IC50 was 2 to 50 nM. The compound `CCOc1nc(N2CCNCC2)nc2c1sc1nc(C)cc(-c3ccccc3)c12` [4-Ethoxy-7-methyl-9-phenyl-2-(piperazin-1-yl)-pyrido[3′,2′:4,5]thieno[3,2-d]pyrimidine] came in with an IC50 of 2 to 50 nM. `CCOc1nc(N2CCNCC2)nc2c1sc1nc(-c3ccc4c(c3)OCCO4)cc(CC)c12` [4-Ethoxy-9-ethyl-7-(2,3-dihydrobenzo[b][1,4]dioxin-6-yl)-2-(piperazin-1-yl)-pyrido[3′,2′:4,5]thieno[3,2-d]pyrimidine]: the IC50 was less than 2 nM.

For the compound `CCOc1nc(N2CCNCC2)nc2c1sc1nc(-c3ccc4c(c3)OCO4)cc(CC)c12` [4-Ethoxy-9-ethyl-7-(3,4-methylenedioxyphenyl)-2-piperazin-1-yl-pyrido[3′,2′:4,5]thieno-[3,2-d]pyrimidine], the IC50 is less than 2 nM.

`CCOc1nc(N2CCNCC2)nc2c1sc1nc(N3CCN(c4ncccn4)CC3)cc(CC)c12` [4-Ethoxy-9-ethyl-7-(4-(pyrimidyl-2-yl)piperazin-1-yl)-2-piperazin-1-yl-pyrido[3′,2′:4,5]thieno[3,2-d]pyrimidine] returned an IC50 of less than 2 nM. `CCOc1nc(N2CCNCC2)nc2c1sc1nc(-c3ccc(I)cc3)cc(CC)c12` [4-Ethoxy-9-ethyl-7-(4-iodo-phenyl)-2-(piperazin-1-yl)-pyrido[3′,2′:4,5]thieno[3,2-d]pyrimidine]: the IC50 was less than 2 nM. The compound `CCOc1nc(N2CCNCC2)nc2c1sc1nc(-c3ccc(OC)cc3)cc(CC)c12` [4-Ethoxy-9-ethyl-7-(4-methoxyphenyl)-2-(piperazin-1-yl)-pyrido[3′,2′:4,5]thieno[3,2-d]pyrimidine] gave an IC50 of less than 2 nM. Compound `CCOc1nc(N2CCNCC2)nc2c1sc1nc(-c3ccc(C)cc3)cc(CC)c12` [4-Ethoxy-9-ethyl-7-(4-methyl-phenyl)-2-(piperazin-1-yl)-pyrido[3′,2′:4,5]thieno[3,2-d]pyrimidine] gave an IC50 of less than 2 nM. Take `CCOc1nc(N2CCNCC2)nc2c1sc1nc(-c3ccc(SC)cc3)cc(CC)c12` [4-Ethoxy-9-ethyl-7-(4-methylthio-phenyl)-2-(piperazin-1-yl)-pyrido[3′,2′:4,5]thieno[3,2-d]pyrimidine]: the IC50 was less than 2 nM. `CCOc1nc(N2CCNCC2)nc2c1sc1nc(N3CCN(c4ccccc4)CC3)cc(CC)c12` [4-Ethoxy-9-ethyl-7-(4-phenyl-piperazin-1-yl)-2-piperazin-1-yl-pyrido[3′,2′:4,5]thieno[3,2-d]pyrimidine]: the IC50 was 2 to 50 nM.

The compound `CCOc1nc(N2CCNCC2)nc2c1sc1nc(-c3ccc(Oc4ccc(OC)cc4)cc3)cc(CC)c12` [4-Ethoxy-9-ethyl-7-[4-(4-methoxyphenoxy)phenyl]-2-(piperazin-1-yl)-pyrido[3′,2′:4,5]thieno[3,2-d]pyrimidine] yielded an IC50 of less than 2 nM. `CCOc1nc(N2CCNCC2)nc2c1sc1nc(-c3ccc(-c4cc(OC)c(OC)c(OC)c4)cc3)nc(C)c12` [4-Ethoxy-9-methyl-2-piperazin-1-yl-7-(3′,4′,5′-trimethoxybiphen-4-yl)-thieno[2,3-d:4,5-d′]dipyrimidine] had an IC50 of less than 2 nM.

`CCOc1nc(N2CCNCC2)nc2c1sc1nc(-c3ccc(-c4cccnc4)cc3)nc(C)c12` [4-Ethoxy-9-methyl-2-piperazin-1-yl-7-(4-[3-pyridyl]-phenyl)-thieno[2,3-d:4,5-d′]dipyrimidine] yielded an IC50 of less than 2 nM. The result for `CCOc1nc(N2CCNCC2)nc2c1sc1nc(-c3ccc(-c4ccncc4)cc3)nc(C)c12` [4-Ethoxy-9-methyl-2-piperazin-1-yl-7-(4-[4-pyridyl]-phenyl)-thieno[2,3-d:4,5-d′]dipyrimidine] reads less than 2 nM.

Regarding `CCOc1nc(N2CCNCC2)nc2c1sc1nc(-c3ccc(-c4cncnc4)cc3)nc(C)c12` [4-Ethoxy-9-methyl-2-piperazin-1-yl-7-(4-[5-pyrimidinyl]-phenyl)-thieno[2,3-d:4,5-d′]dipyrimidine], the IC50 was in the range of 2 to 50 nM.

In turn, `CCOc1nc(N2CCNCC2)nc2c1sc1nc(-c3ccc(-c4ccn(C(=O)OC(C)(C)C)c4)cc3)nc(C)c12` [4-Ethoxy-9-methyl-2-piperazin-1-yl-7-(4-[N—BOC-3-pyrrolyl]-phenyl)-thieno[2,3-d:4,5-d′]dipyrimidine] came in with an IC50 of 2 to 50 nM.

One may read the IC50 as the midpoint of a concentration-inhibition curve. A low value points to higher potency.
